# Key:
# dopamine D-2 receptors = target: T1, dopamine D-2 receptors (Rattus norvegicus, UniProt P61169); assay: Inhibition of 3H-spiperone binding to dopamine D-2 receptors in rat corpus striatum in vitro; settings: 3H-spiperone 0.5 nM, rat corpus striatum, 37° C., 10 min; read-out: Receptor Binding; IC50 DA D-2 3H-Spi
# T1 construct: striatal tissue is dissected and weighed; from tissue; host or cells: corpus striatum of male Wistar rats, crude membranes
# Procedure: INHIBITION OF ^3 H-SPIPERONE BINDING TO DOPAMINE D-2 RECEPTORS IN RAT CORPUS STRIATUM IN VITRO
# By this method the inhibition by drugs of the binding of ^3 H-spiperone (0.5 nM) to dopamine D-2 receptors in membranes from rat corpus striatum is determined in vitro.
# (§1) Male Wistar (Mol:Wistar) rats (125-250 g) are sacrificed and striatal tissue is dissected and weighed. The tissue is homogenized (Ultra Turrax, 10 sec.) in 10 ml of ice-cold 50 mM K-phosphate buffer pH 7.4 (at 25° C.). The homogenate is centrifuged twice at 20,000 g for 10 min. at 4° C. with rehomogenization of the pellet in 10 ml ice-cold buffer. The final pellet is homogenized in 1300 vol (w/v) ice-cold buffer.
# Incubation tubes kept on ice in triplicate receive 100 μl of drug solution in water (or water for total binding) and 4000 μl of tissue suspension (final tissue content corresponds to 3.08 mg original tissue). The binding experimental is initiated by addition of 100 μl of ^3 H-spiperone (final concentration 0.5 nM) and by placing the tubes in a 37° C. water bath. After incubation for 10 min. the samples are filtered under vacuum (0-50 mBar) through Whatman GF/F filters (25 mm). The tubes are rinsed with 5 ml ice-cold buffer which are then poured on the filters. Thereafter, the filters are washed with 2×5 ml of buffer. The filters are placed in counting vials and 4 ml of appropriate scintillation fluid (e.g. Picofluor ™15) are added. After shaking for 1 h and storage 2 hrs in the dark the content of radioactivity is determined by liquid scintillation counting. Specific binding is obtained by subtracting the nonspecific binding in the presence of 10 μM of 6,7-ADTN.
# (§2) For determination of the inhibition of binding five concentrations of drugs covering 3 decades are used.
# ^3 H-Spiperone=[phenyl-4-^3 H]-spiperone from Amersham International plc. England, specific activity 15-25 Ci/mmol.
# α1 adrenoceptors = assay: Inhibition of 3H-prazosin binding to α1 adrenoceptors in rat brain in vitro; settings: 3H-Prazosin 0.25 nM, rat brain, 25° C., 20 min; read-out: Receptor Binding; IC50 α1 3H-Praz
# Procedure: INHIBITION OF ^3 H-PRAZOSIN BINDING TO α1 ADRENOCEPTORS IN RAT BRAIN IN VITRO
# Method and results in Hyttel & Larsen, J. Neurochem, 44, 1615-1622, 1985; Skarsfeldt & Hyttel, Eur. J. Pharmacol. 125, 323-340, 1986.
# as §1, with “(Mol:Wist)” for “(Mol:Wistar)”, “(125-200” for “(125-250”, “brain” for “striatal”, “[…] Tris” for “mM K-phosphate”, “7,7” for “7.4”, “400” for “1300”
# Incubation tubes kept on ice in triplicate receive 100 μl of drug solution in water (or water for total binding) and 4000μl of tissue suspension (final tissue content corresponds to 10 mg original tissue). The binding experiment is initiated by addition of 100 μl of ^3 H-Prazosin (final concentration 0.25 nM) and by placing the tubes in a 25° C. water bath. After incubation for 20 min. the samples are filtered under vacuum (0-50 mBar) through Whatman GF/F filters (25 mm). The tubes are rinsed with 5 ml ice-cold buffer which then are poured on the filters. Thereafter, the filters are washed with 5 ml of buffer. The filters are placed in counting vials and 4 ml of appropriate scintillation fluid (e.g. Picofluor™15) are added. After shaking for 1 h and storage 2 hrs in the dark the content of radioactivity is determined by liquid scintillation counting. Specific binding is obtained by subtracting the nonspecific binding in the presence of 1 μM of Prazosin.
# as §2
# The measured cpm are plotted against drug concentration on semilogarithmic paper and the best fitting S-shaped curve is drawn. The IC50 value is determined as the concentration at which the binding is 50% of the total binding in control samples minus the nonspecific binding in the presence of 1 μM of Prazosin.
# ^3 H-Prazosin=[furoyl-5-^3 H]-Prazosin from New England Nuclear, specific activity approximately 20 Ci/mmol.
# 5-HT2 receptors = target: T2, 5-HT2 receptors (Rattus norvegicus, UniProt P14842); assay: Inhibition of 3H-ketanserin binding to 5-HT2 receptors in rat cortex in vitro; settings: 3H-Ketanserin 0.5 nM, rat cortex, 37° C., 30 min; read-out: Receptor Binding; IC50 5-HT2 3H-Ket
# T2 construct: cortical tissue is dissected and weighed; from tissue; host or cells: cortex of male Wistar rats, crude membranes
# T2 sequence (P14842 whole entry): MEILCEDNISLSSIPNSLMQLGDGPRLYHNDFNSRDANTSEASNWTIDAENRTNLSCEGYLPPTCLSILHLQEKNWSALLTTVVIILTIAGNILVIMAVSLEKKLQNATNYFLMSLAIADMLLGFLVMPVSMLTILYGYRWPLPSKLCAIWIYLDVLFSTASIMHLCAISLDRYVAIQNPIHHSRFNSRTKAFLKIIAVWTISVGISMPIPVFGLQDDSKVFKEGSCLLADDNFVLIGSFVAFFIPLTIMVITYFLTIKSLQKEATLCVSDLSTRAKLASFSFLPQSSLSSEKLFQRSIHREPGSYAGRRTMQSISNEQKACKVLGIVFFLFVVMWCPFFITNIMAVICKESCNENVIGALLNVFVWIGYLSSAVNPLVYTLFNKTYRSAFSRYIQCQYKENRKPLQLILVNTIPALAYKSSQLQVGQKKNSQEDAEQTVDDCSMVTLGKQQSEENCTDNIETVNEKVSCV
# Procedure: Method in Hyttel, Pharmacology & Toxicology, 61, 126-129, 1987.
# as §1, with “(Mol:Wist)” for “(Mol:Wistar)”, “cortical” for “striatal”, “tris” for “K-phosphate”, “7.7” for “7.4”, “C.). The centrifuge glassware used in this step has been rinsed by sonication for 10 min. in ethanol.” for “C.).”, “500” for “1300”
# Incubation tubes kept on ice in triplicate receive 100 μl of drug solution in water (or water for total binding) and 2000 μl of tissue suspension (final tissue content corresponds to 4 mg original tissue). […] After incubation for 30 min. the samples are filtered under vacuum (0-50 mBar) through Whatman GF/F filters (25 mm). The tubes are rinsed with 5 ml ice-cold buffer which are then poured on the filters. Thereafter, the filters are washed with 2×5 ml of buffer. The filters are placed in counting vials and 4 ml of appropriate scintillation fluid (e.g. Picofluor™15) are added. After shaking for 1 h and storage 2 hrs in the dark the content of radioactivity is determined by liquid scintillation counting. Specific binding is obtained by subtracting the nonspecific binding in the presence of 1 μM mianserin.
# as §2
# The IC50 value is determined as the concentration at which the binding is 50% of the total binding in control samples minus the nonspecific binding in the presence of 1 μM mianserin.
# T1 sequence (P61169 whole entry): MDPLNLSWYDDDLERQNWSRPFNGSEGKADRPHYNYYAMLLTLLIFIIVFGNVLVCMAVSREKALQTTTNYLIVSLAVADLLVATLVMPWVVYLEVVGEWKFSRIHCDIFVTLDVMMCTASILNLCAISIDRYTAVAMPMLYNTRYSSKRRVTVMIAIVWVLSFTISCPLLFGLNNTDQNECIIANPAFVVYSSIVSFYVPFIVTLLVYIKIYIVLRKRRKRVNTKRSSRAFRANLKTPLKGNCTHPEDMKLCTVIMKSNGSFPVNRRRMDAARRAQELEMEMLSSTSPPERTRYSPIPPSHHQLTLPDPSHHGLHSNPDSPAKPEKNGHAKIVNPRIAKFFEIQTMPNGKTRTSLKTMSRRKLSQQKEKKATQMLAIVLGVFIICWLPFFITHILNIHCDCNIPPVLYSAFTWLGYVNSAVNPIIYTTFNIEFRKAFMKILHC
compound,measurement,setting,value
"Cc1ccc([C@@H]2C[C@@H](N3CCN(CCN4CCN(C(C)C)C4=O)CC3)c3ccc(Cl)cc32)cc1 (relative stereo) [Compound 26, Trans-1-[2-[4-[5-chloro-3-(4-methylphenyl)-2,3-dihydro-1H-inden-1-yl]piperazin-1-yl]ethyl]-3-isopropyl-2-imidazolidinone]",IC50,dopamine D-2 receptors,0.45 µM
same,IC50,α1 adrenoceptors,0.06 µM
same,IC50,5-HT2 receptors,0.011 µM
"Cc1cc([C@@H]2C[C@@H](N3CCN(CCO)CC3)c3ccc(Cl)cc32)cs1 (relative stereo) [Compound 6, Trans-4-[5-chloro-3-(2-methyl-4-thienyl)-2,3-dihydro-1H-inden-1-yl]-1-piperazineethanol]",IC50,dopamine D-2 receptors,2.6 µM
same,IC50,α1 adrenoceptors,1 µM
same,IC50,5-HT2 receptors,0.056 µM
"O=C1NCCN1CCN1CCN([C@H]2C[C@H](c3ccc(F)cc3)c3cc(C(F)(F)F)ccc32)CC1 (relative stereo) [Compound 1, Trans-1-[2-[4-[3-(4-fluorophenyl)-5-(trifluoromethyl)-2,3-dihydro-1H-inden-11-yl]-1-piperazinyl]ethyl]-2-imidazolidinone]",IC50,dopamine D-2 receptors,0.76 µM
same,IC50,α1 adrenoceptors,0.32 µM
same,IC50,5-HT2 receptors,0.0029 µM
Fc1ccc([C@@H]2C[C@@H](N3CCN(CCN4CCCC4=S)CC3)c3ccc(Cl)cc32)cc1 (relative stereo) [Compound 38],IC50,dopamine D-2 receptors,0.29 µM
same,IC50,α1 adrenoceptors,0.26 µM
same,IC50,5-HT2 receptors,0.0053 µM
"O=C1NCCN1CCN1CCN([C@H]2C[C@H](c3ccc(F)cc3)c3cc(C(F)(F)F)ccc32)CC1 (single isomer, unassigned) [(+)-1]",IC50,dopamine D-2 receptors,0.29 µM
same,IC50,α1 adrenoceptors,0.33 µM
same,IC50,5-HT2 receptors,0.002 µM
"O=C1NCCCN1CCN1CCN([C@@H]2C[C@@H](c3ccc(F)cc3)c3cc(F)ccc32)CC1 (single isomer, unassigned) [(-)-33, (-)-Trans-1-[2-[4-[5-fluoro-3-(4-fluorophenyl)-2,3-dihydro-1H-inden-1-yl]piperazin-1-yl]ethyl]-tetrahydro-2(1H)-pyrimidinone]",IC50,dopamine D-2 receptors,4.6 µM
same,IC50,5-HT2 receptors,0.057 µM
"O=C1NCCN1CCN1CCN([C@@H]2C[C@@H](c3ccc(F)cc3)c3ccc(C(F)(F)F)cc32)CC1 (relative stereo) [Compound 39, reference compound]",IC50,dopamine D-2 receptors,0.021 µM
same,IC50,α1 adrenoceptors,0.0083 µM
"Fc1ccc([C@H]2C[C@H](N3CCNCC3)c3ccc(Cl)cc32)cc1 (single isomer, unassigned) [(-)-10]",IC50,dopamine D-2 receptors,0.73 µM
same,IC50,α1 adrenoceptors,0.39 µM
same,IC50,5-HT2 receptors,0.015 µM
"Cc1ccc2c(c1)[C@H](N1CCN(CCN3CCNC3=O)CC1)C[C@H]2c1ccc(F)cc1 (relative stereo) [Compound 40, reference compound]",IC50,dopamine D-2 receptors,0.043 µM
same,IC50,α1 adrenoceptors,0.012 µM
same,IC50,5-HT2 receptors,0.00071 µM
"CC(C)N1CCN(CCN2CCN([C@@H]3C[C@@H](c4ccccc4F)c4cc(Cl)ccc43)CC2)C1=O (relative stereo) [Compound 21, Trans-1-[2-[4-[5-chloro-3-(2-fluorophenyl)-2,3-dihydro-1H-inden-1-yl]piperazin-1-yl]ethyl]-3-isopropyl-2-imidazolidinone]",IC50,dopamine D-2 receptors,0.92 µM
same,IC50,α1 adrenoceptors,0.67 µM
same,IC50,5-HT2 receptors,0.0035 µM
"OCCN1CCN([C@@H]2C[C@@H](c3ccc(F)cc3)c3cc(Cl)ccc32)CC1 (relative stereo) [Compound 3, Trans-4-[5-chloro-3-(4-fluorophenyl)-2,3-dihydro-1H-inden-1-yl)-1-piperazine-ethanol]",IC50,dopamine D-2 receptors,2.2 µM
same,IC50,α1 adrenoceptors,0.23 µM
same,IC50,5-HT2 receptors,0.025 µM
"Cc1ccc2c(c1)[C@H](c1ccc(F)cc1)C[C@H]2N1CCN(CCN2CCNC2=O)CC1 (relative stereo) [Compound 9, Trans-1-[2-[4-[3-(4-fluorophenyl)-5-methyl-2,3-dihydro-1H-inden-1-yl]piperazine-1-yl]ethyl]-2-imidazolidinone]",IC50,dopamine D-2 receptors,0.37 µM
same,IC50,α1 adrenoceptors,0.22 µM
same,IC50,5-HT2 receptors,0.0037 µM
"O=C1N(CCN2CCN([C@@H]3C[C@@H](c4ccc(F)cc4)c4cc(Cl)ccc43)CC2)CCN1c1ccccc1 (relative stereo) [Compound 17, Trans-1-[2-[4-[5-chloro-3-(4-fluorophenyl)-2,3-dihydro-1H-inden-1-yl]piperazin-1-yl]ethyl]-3-phenyl-2-imidazolidinone]",IC50,dopamine D-2 receptors,0.3 µM
same,IC50,α1 adrenoceptors,0.31 µM
same,IC50,5-HT2 receptors,0.044 µM
"OCCN1CCN([C@@H]2C[C@@H](c3ccc(F)cc3)c3cc(C(F)(F)F)ccc32)CC1 (relative stereo) [Compound 5, Trans-4-[3-(4-fluorophenyl)-5-(trifluoromethyl)-2,3-dihydro-1H-inden-1-yl]-1-piperazineethanol]",IC50,dopamine D-2 receptors,1.3 µM
same,IC50,α1 adrenoceptors,0.38 µM
same,IC50,5-HT2 receptors,0.0089 µM
"CC(C)N1CCN(CCN2CCN([C@@H]3C[C@@H](c4ccc(F)cc4)c4cc(Br)ccc43)CC2)C1=O (relative stereo) [Compound 24, Trans-1-[2-[4-[5-bromo-3-(4-fluorophenyl)-2,3-dihydro-1H-inden-1-yl]piperazin-1-yl]ethyl]-3-isopropyl-2-imidazolidinone]",IC50,dopamine D-2 receptors,0.24 µM
same,IC50,α1 adrenoceptors,0.27 µM
same,IC50,5-HT2 receptors,0.0064 µM
"CC(C)N1CCN(CCN2CCN([C@@H]3C[C@@H](c4ccc(F)cc4)c4cc(Cl)ccc43)CC2)C1=S (relative stereo) [Compound 36, Trans-1-[2-[4-[5-chloro-3-(4-fluorophenyl)-2,3-dihydro-1-H-inden-1-yl]piperazin-1-yl]ethyl]-3-isopropyl-2-imidazolidinthione]",IC50,dopamine D-2 receptors,0.26 µM
same,IC50,α1 adrenoceptors,0.069 µM
same,IC50,5-HT2 receptors,0.0036 µM
"O=C1NCCN1CCN1CCN([C@@H]2C[C@@H](c3ccc(F)cc3)c3ccc(Cl)cc32)CC1 (relative stereo) [Compound 41, reference compound]",IC50,dopamine D-2 receptors,0.017 µM
same,IC50,α1 adrenoceptors,0.0031 µM
"Fc1ccc([C@H]2C[C@H](N3CCNCC3)c3ccc(Cl)cc32)cc1 (single isomer, unassigned) [(+)-10]",IC50,dopamine D-2 receptors,28 µM
same,IC50,5-HT2 receptors,3.3 µM

# Source: patent US5643784A, “Indan derivatives” (H, Lundbeck A/S, priority 1990, dated 1997)
